Values joined by “and” are separate entries in the source; they are usually repeats but may differ in a detail not shown here. Identical values can stand only once. Like-named read-outs stand apart in the source and are kept apart here.
Tested on: VAChT
Assay type: in vivo, cynomolgus macaques
[1] = 2TCM, temporal cortex, mean ± SD, n = 3
[2] = 2TCM, thalamus, mean ± SD, n = 3
[3] = 2TCM, white matter, mean ± SD, n = 3
[4] = LoganAIF, striatum, mean ± SD, n = 3
[5] = MA1, striatum, mean ± SD, n = 3
[6] = RTM, reference cerebellum-hemispheres, striatum, mean ± SD, n = 7
[7] = SRTM, reference cerebellum-hemispheres, striatum, mean ± SD, n = 7
[8] = SRTM, frontal cortex, mean ± SD, n = 7
[9] = SRTM, hippocampus, mean ± SD, n = 7
[10] = SRTM, middle brain, mean ± SD, n = 7
[11] = SRTM, occipital cortex, mean ± SD, n = 7
[12] = SRTM, temporal cortex, mean ± SD, n = 7
[13] = SRTM, thalamus, mean ± SD, n = 7
[14] = SRTM, white matter, mean ± SD, n = 7

## O=C(c1ccc(F)cc1)C1CCN(C2Cc3c(cccc3OCCF)CC2O)CC1 (single isomer, unassigned; (-)) [[^18F]VAT, ((-)-(1-(-8-(2-fluoroethoxy)-3-hydroxy-1,2,3,4-tetrahydronaphthalen-2-yl)piperidin-4-yl)(4-fluorophenyl)-methanone)]
[1]
  k3 / k4: 0.74 ± 0.48
  k4: 0.005 ± 0.002 min⁻¹
[2]
  BPND = DVR-1: 1.16 ± 0.24
  K1: 0.112 ± 0.061 mL·cm^−3·min^−1
  VT: 10.09 ± 8.25 mL· cm^−3
  k2: 0.030 ± 0.004 min⁻¹
  k3: 0.006 ± 0.002 min⁻¹
  k3 / k4: 1.38 ± 0.26
  k4: 0.004 ± 0.001 min⁻¹
2TCM, vermis, mean ± SD, n = 3
  BPND = DVR-1: 0.22 ± 0.55
  K1: 0.180 ± 0.069 mL·cm^−3·min^−1
  VT: 4.77 ± 2.72 mL· cm^−3
  k2: 0.068 ± 0.005 min⁻¹
  k3: 0.004 ± 0.003 min⁻¹
  k3 / k4: 0.75 ± 0.43
  k4: 0.005 ± 0.001 min⁻¹
[3]
  BPND = DVR-1: 0.21 ± 0.13
  K1: 0.065 ± 0.041 mL·cm^−3·min^−1
  VT: 5.66 ± 4.49 mL· cm^−3
  k2: 0.026 ± 0.005 min⁻¹
  k3: 0.006 ± 0.002 min⁻¹
  k3 / k4: 1.01 ± 0.32
  k4: 0.006 ± 0.001 min⁻¹
[4]
  BPND: 2.58 ± 0.9 (20%)
  DVR: 3.58 ± 0.9 (15%)
  VT: 16.87 ± 17 (58%) mL· cm^−3
LoganREF, reference cerebellum-hemispheres, striatum, mean ± SD, n = 7
  DVR: 3.11 ± 0.43 (5%)
LoganREF, frontal cortex, mean ± SD, n = 7
  BPND: 0.29 ± 0.2
LoganREF, hippocampus, mean ± SD, n = 7
  BPND: 0.47 ± 0.3
LoganREF, middle brain, mean ± SD, n = 7
  BPND: 0.15 ± 0.2
LoganREF, occipital cortex, mean ± SD, n = 7
  BPND: 0.13 ± 0.1
LoganREF, scan duration for analysis 45 min, mean ± SD, n = 7
  Striatal BPND: 1.60 ± 0.58
LoganREF, scan duration for analysis 60 min, mean ± SD, n = 7
  Striatal BPND: 1.69 ± 0.49
LoganREF, scan duration for analysis 90 min, mean ± SD, n = 7
  Striatal BPND: 1.86 ± 0.45
LoganREF, temporal cortex, mean ± SD, n = 7
  BPND: 0.11 ± 0.1
LoganREF, thalamus, mean ± SD, n = 7
  BPND: 0.76 ± 0.3
LoganREF, vermis, mean ± SD, n = 7
  BPND: 0.063 ± 0.2
LoganREF, white matter, mean ± SD, n = 7
  BPND: 0.17 ± 0.2
[5]
  BPND: 2.17 ± 1 (27%)
  DVR: 3.17 ± 1 (18%)
  VT: 21.45 ± 14 (38%) mL· cm^−3
[6]
  BPND: 2.11 ± 0.46 (8%)
  DVR: 3.11 ± 0.46 (6%)
  R1 = K1/K1′: ( ^*** R1 = K1/K1′ 0.847 ± 0.08 (4%))
  k2: 0.17 ± 0.16 (36%) min^−1
  k3: 0.05 ± 0.04 (30%) min^−1
  k4: 0.025 ± 0.02 (30%) min^−1
[7]
  DVR: 3.15 ± 0.46 (6%)
  k2: 0.032 ± 0.007 (8%) min^−1 and 0.032 ± 0.01 min^−1
[8]
  BPND: 0.32 ± 0.2
  R1: 0.82 ± 0.3
  k2: 0.055 ± 0.02 min⁻¹
[9]
  BPND: 0.48 ± 0.2
  R1: 0.79 ± 0.1
  k2: 0.053 ± 0.04 min⁻¹
[10]
  BPND: 0.17 ± 0.1
  R1: 0.74 ± 0.2
  k2: 0.066 ± 0.1 min⁻¹
[11]
  BPND: 0.12 ± 0.1
  R1: 0.81 ± 0.3
  k2: 0.053 ± 0.02 min⁻¹
SRTM, scan duration for analysis 45 min, mean ± SD, n = 7
  Striatal BPND: 2.67 ± 1.14
SRTM, scan duration for analysis 60 min, mean ± SD, n = 7
  Striatal BPND: 2.14 ± 0.49
SRTM, scan duration for analysis 90 min, mean ± SD, n = 7
  Striatal BPND: 2.18 ± 0.37
[12]
  BPND: 0.10 ± 0.08
  R1: 0.63 ± 0.2
  k2: 0.074 ± 0.07 min⁻¹
[13]
  BPND: 0.79 ± 0.3
  R1: 0.95 ± 0.2
  k2: 0.059 ± 0.02 min⁻¹
SRTM, vermis, mean ± SD, n = 7
  BPND: 0.081 ± 0.07
  R1: 1.08 ± 0.4
  k2: 0.064 ± 0.6 min⁻¹
[14]
  BPND: 0.17 ± 0.2
  R1: 0.47 ± 0.1
  k2: 0.032 ± 0.01 min⁻¹
After tracer injection
  time of peak striatal uptake: about 20 min
